# Experimental data taken from US8927559B2, “Quinazolinone-type compounds as CRTH2 antagonists” (Merck Sharp & Dohme Corp., priority 2010, dated 2015).
# “And” between values parts separate entries of the source, which are not always exact repeats. Equal values may be shown once. Read-outs that look alike come from different tables or passages of the source.
# Molecular target: T1, CRTH2 receptor (hCRTH2) (Homo sapiens, UniProt Q9Y5Y4)
# T1 construct: expressed in transfected cells; host or cells: HEK cells (HEK-hCRTH2 cell line), membranes
# T1 sequence (Q9Y5Y4 1-395): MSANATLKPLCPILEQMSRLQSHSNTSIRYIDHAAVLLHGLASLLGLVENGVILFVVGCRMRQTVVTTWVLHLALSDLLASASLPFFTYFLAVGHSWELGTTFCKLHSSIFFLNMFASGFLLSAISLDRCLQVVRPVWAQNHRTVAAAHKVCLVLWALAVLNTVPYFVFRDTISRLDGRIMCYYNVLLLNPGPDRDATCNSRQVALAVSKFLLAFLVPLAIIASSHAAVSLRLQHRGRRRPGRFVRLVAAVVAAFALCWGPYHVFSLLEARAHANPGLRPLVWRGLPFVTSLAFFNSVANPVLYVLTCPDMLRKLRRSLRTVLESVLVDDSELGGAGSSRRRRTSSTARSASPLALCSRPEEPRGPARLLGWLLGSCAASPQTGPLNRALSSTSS
# Experiment: Radioligand binding assay ([3H]PGD2 competition, membranes of HEK-hCRTH2 cell line)
# Conditions: 3.0 nM [3H]PGD2, HEK-hCRTH2 membranes, 60 min, room temperature
# Summary of the method: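 Membranes (8-20 μg protein) from HEK cells expressing human CRTH2 were incubated with [3H]PGD2 and competitor in 1% DMSO for 60 min at room temperature. Non-specific binding was defined with excess PGD2. Bound radioactivity was separated by filtration and counted by melt-on scintillation.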
Structure (SMILES),Ki (read-out: Ki),Ki (Ki)
C[C@@]1(c2nc3ccccc3s2)CC(c2ccc3c(=O)n(-c4ccc(F)cc4)c(CCCCC(=O)O)nc3c2)=NO1 [Example 180],,≤ 10 nM
C[C@]1(c2nc3ccccc3s2)CC(c2ccc3c(=O)n(-c4ccc(F)cc4)c(CCCCC(=O)O)nc3c2)=NO1 [Example 181],,≤ 10 nM
C[C@]1(c2nc3ccc(F)cc3[nH]2)CC(c2ccc3c(=O)n(-c4ccc(F)cc4)c(CCCCC(=O)O)nc3c2)=NO1 [Example 183],10 to 50 nM,
C[C@@]1(c2nc3ccc(F)cc3o2)CC(c2ccc3c(=O)n(-c4ccc(F)cc4)c(CCCCC(=O)O)nc3c2)=NO1 [Example 184],≤ 10 nM and 5.7 nM,
C[C@]1(c2nc3ccc(F)cc3o2)CC(c2ccc3c(=O)n(-c4ccc(F)cc4)c(CCCCC(=O)O)nc3c2)=NO1 [Example 185],10 to 50 nM,
C[C@@]1(C(=O)Nc2cc(F)ccc2O)CC(c2ccc3c(=O)n(-c4ccc(F)cc4)c(CCCCC(=O)O)nc3c2)=NO1 [Example 190],50 to 100 nM and 96.2 nM,
CC1(C(=O)O)CC(c2ccc3c(=O)n(-c4ccc(F)cc4)c(CCCCC(=O)O)nc3c2)=NO1 (stereo not shown) [Example 200],10 to 50 nM,
C[C@]1(c2cc3ccccn3n2)CC(c2ccc3c(=O)n(-c4ccc(F)cc4)c(CCCCC(=O)O)nc3c2)=NO1 [Example 202],10 to 50 nM,
C[C@@]1(c2nc3cc(F)c(F)cc3[nH]2)CC(c2ccc3c(=O)n(-c4ccc(F)cc4)c(CCCCC(=O)O)nc3c2)=NO1 [Example 207],10 to 50 nM and 17 nM,
C[C@]1(c2nc3cc(Cl)c(F)cc3[nH]2)CC(c2ccc3c(=O)n(-c4ccc(F)cc4)c(CCCCC(=O)O)nc3c2)=NO1 [Example 210],10 to 50 nM,
CC1(C(=O)N2CCCCC2)CC(c2ccc3c(=O)n(-c4ccc(F)cc4)c(CCCCC(=O)O)nc3c2)=NO1 (stereo not shown) [Example 212],10 to 50 nM,
C[C@]1(C(=O)N[C@@H]2c3ccccc3C[C@@H]2O)CC(c2ccc3c(=O)n(-c4ccc(F)cc4)c(CCCCC(=O)O)nc3c2)=NO1 [Example 216],10 to 50 nM,
C[C@]1(c2nc3cc(F)c(F)cc3[nH]2)CC(c2ccc3c(=O)n(-c4ccc(Cl)cc4)c(CCCCC(=O)O)nc3c2)=NO1 [Example 225],10 to 50 nM,
CC1(c2ncc3ccccn23)CC(c2ccc3c(=O)n(-c4ccc(F)cc4)c(CCCCC(=O)O)nc3c2)=NO1 (stereo not shown) [Example 226],10 to 50 nM,
C[C@@]1(c2ncc3ccccn23)CC(c2ccc3c(=O)n(-c4ccc(F)cc4)c(CCCCC(=O)O)nc3c2)=NO1 [Example 227],10 to 50 nM,
CC1(c2cnc3ccccc3n2)CC(c2ccc3c(=O)n(-c4ccc(F)cc4)c(CCCCC(=O)O)nc3c2)=NO1 (stereo not shown) [Example 230],10 to 50 nM,
C[C@@]1(C(=O)NCc2ccccc2)CC(c2ccc3c(=O)n(-c4ccc(F)cc4)c(CCCCC(=O)O)nc3c2)=NO1 [Example 234],10 to 50 nM,
C[C@]1(c2cccc(Br)c2)CC(c2ccc3c(=O)n(-c4ccc(F)cc4)c(CCCCC(=O)O)nc3c2)=NO1 [Example 236],10 to 50 nM,
C[C@@]1(C(=O)NCc2ccc(C#N)cc2)CC(c2ccc3c(=O)n(-c4ccc(F)cc4)c(CCCCC(=O)O)nc3c2)=NO1 [Example 237],10 to 50 nM,
C[C@@]1(C(=O)N2Cc3ccccc3C2)CC(c2ccc3c(=O)n(-c4ccc(F)cc4)c(CCCCC(=O)O)nc3c2)=NO1 [Example 238],10 to 50 nM,
C[C@@]1(C(=O)N2CC[C@H](c3ccccc3)C2)CC(c2ccc3c(=O)n(-c4ccc(F)cc4)c(CCCCC(=O)O)nc3c2)=NO1 [Example 239],10 to 50 nM,
N#Cc1ccc(Cc2nc(-c3ccc4c(=O)n(-c5ccc(F)cc5)c(CCCCC(=O)O)nc4c3)no2)cc1 [Example 243],10 to 50 nM,
O=C(O)CCCCc1nc2cc(-c3noc(C4CCCc5ccccc54)n3)ccc2c(=O)n1-c1ccc(F)cc1 (stereo not shown) [Example 244],≤ 10 nM,
O=C(O)CCCCc1nc2cc(-c3noc(C4CCCc5ccccc54)n3)ccc2c(=O)n1-c1ccc(F)cc1 (stereo not shown) [Example 245],10 to 50 nM,
O=C(O)CCCCc1nc2cc(-c3noc(C4CCc5ccccc5C4)n3)ccc2c(=O)n1-c1ccc(F)cc1 (stereo not shown) [Example 246],≤ 10 nM,
O=C(O)CCCCc1nc2cc(-c3noc(C4CCc5ccccc5C4)n3)ccc2c(=O)n1-c1ccc(F)cc1 (stereo not shown) [Example 247],10 to 50 nM,

# Continued, in another order:
Ki (read-out: Ki),Structure (SMILES),Ki (Ki)
≤ 10 nM,C[C@@]1(c2cn3ccccc3n2)CC(c2ccc3c(=O)n(-c4ccc(F)cc4)c(CCCCC(=O)O)nc3c2)=NO1 [Example 178],
≤ 10 nM,C[C@@]1(c2nc3ccc(F)cc3[nH]2)CC(c2ccc3c(=O)n(-c4ccc(F)cc4)c(CCCCC(=O)O)nc3c2)=NO1 [Example 182],
≤ 10 nM,C[C@@]1(c2nc3ccc(Cl)cc3[nH]2)CC(c2ccc3c(=O)n(-c4ccc(F)cc4)c(CCCCC(=O)O)nc3c2)=NO1 [Example 186],
≤ 10 nM,C[C@]1(C(=O)Nc2cc(F)ccc2O)CC(c2ccc3c(=O)n(-c4ccc(F)cc4)c(CCCCC(=O)O)nc3c2)=NO1 [Example 189],
≤ 10 nM,C[C@@]1(C(=O)Nc2ccccc2O)CC(c2ccc3c(=O)n(-c4ccc(F)cc4)c(CCCCC(=O)O)nc3c2)=NO1 [Example 191],
≤ 10 nM,CC(C)(C)OC(=O)C1(C)CC(c2ccc3c(=O)n(-c4ccc(F)cc4)c(CCCCC(=O)O)nc3c2)=NO1 (stereo not shown) [Example 192],
≤ 10 nM,CC1(c2cc3ccccn3n2)CC(c2ccc3c(=O)n(-c4ccc(F)cc4)c(CCCCC(=O)O)nc3c2)=NO1 (stereo not shown) [Example 193],
≤ 10 nM,CC1(c2nc3cc(F)c(F)cc3[nH]2)CC(c2ccc3c(=O)n(-c4ccc(F)cc4)c(CCCCC(=O)O)nc3c2)=NO1 (stereo not shown) [Example 194],
≤ 10 nM,Cc1cccc2nc(C3(C)CC(c4ccc5c(=O)n(-c6ccc(F)cc6)c(CCCCC(=O)O)nc5c4)=NO3)[nH]c12 (stereo not shown) [Example 195],
≤ 10 nM,C[C@@]1(c2nc3cc(C(F)(F)F)ccc3[nH]2)CC(c2ccc3c(=O)n(-c4ccc(F)cc4)c(CCCCC(=O)O)nc3c2)=NO1 [Example 196],
≤ 10 nM,CC1(c2nc3cc(Cl)c(F)cc3[nH]2)CC(c2ccc3c(=O)n(-c4ccc(F)cc4)c(CCCCC(=O)O)nc3c2)=NO1 (stereo not shown) [Example 197],
≤ 10 nM,CC1(c2nc3cc(F)cc(F)c3[nH]2)CC(c2ccc3c(=O)n(-c4ccc(F)cc4)c(CCCCC(=O)O)nc3c2)=NO1 (stereo not shown) [Example 198],
≤ 10 nM,CC1(C(=O)N2Cc3ccccc3C2)CC(c2ccc3c(=O)n(-c4ccc(F)cc4)c(CCCCC(=O)O)nc3c2)=NO1 (stereo not shown) [Example 199],
≤ 10 nM,C[C@@]1(c2cc3ccccn3n2)CC(c2ccc3c(=O)n(-c4ccc(F)cc4)c(CCCCC(=O)O)nc3c2)=NO1 [Example 201],
≤ 10 nM,Cc1cccc2[nH]c([C@]3(C)CC(c4ccc5c(=O)n(-c6ccc(F)cc6)c(CCCCC(=O)O)nc5c4)=NO3)nc12 [Example 203],
≤ 10 nM,CC1(c2nc3cc(F)ccc3[nH]2)CC(c2ccc3c(=O)n(-c4ccc(Cl)cc4)c(CCCCC(=O)O)nc3c2)=NO1 (stereo not shown) [Example 205],

Ki (read-out: Ki),Structure (SMILES),Ki (Ki)
≤ 10 nM,CC1(c2nc3cc(Cl)ccc3[nH]2)CC(c2ccc3c(=O)n(-c4ccc(Cl)cc4)c(CCCCC(=O)O)nc3c2)=NO1 (stereo not shown) [Example 206],
≤ 10 nM,C[C@]1(c2nc3cc(F)c(F)cc3[nH]2)CC(c2ccc3c(=O)n(-c4ccc(F)cc4)c(CCCCC(=O)O)nc3c2)=NO1 [Example 208],
≤ 10 nM,C[C@@]1(c2nc3cc(Cl)c(F)cc3[nH]2)CC(c2ccc3c(=O)n(-c4ccc(F)cc4)c(CCCCC(=O)O)nc3c2)=NO1 [Example 209],
≤ 10 nM,CC1(C(=O)N2CCc3ccccc32)CC(c2ccc3c(=O)n(-c4ccc(F)cc4)c(CCCCC(=O)O)nc3c2)=NO1 (stereo not shown) [Example 211],
≤ 10 nM,C[C@@]1(c2nc3c(F)cc(F)cc3[nH]2)CC(c2ccc3c(=O)n(-c4ccc(F)cc4)c(CCCCC(=O)O)nc3c2)=NO1 [Example 213],
≤ 10 nM,C[C@@]1(C(=O)N[C@H]2c3ccccc3C[C@H]2O)CC(c2ccc3c(=O)n(-c4ccc(F)cc4)c(CCCCC(=O)O)nc3c2)=NO1 [Example 215],
≤ 10 nM,CC1(c2nc3cc(F)c(F)cc3[nH]2)CC(c2ccc3c(=O)n(-c4ccc(Cl)cc4)c(CCCCC(=O)O)nc3c2)=NO1 (stereo not shown) [Example 219],
≤ 10 nM,C[C@@]1(c2nc3ccc(F)cc3[nH]2)CC(c2ccc3c(=O)n(-c4ccc(Cl)cc4)c(CCCCC(=O)O)nc3c2)=NO1 [Example 220],
≤ 10 nM,C[C@@]1(c2nc3ccc(Cl)cc3[nH]2)CC(c2ccc3c(=O)n(-c4ccc(Cl)cc4)c(CCCCC(=O)O)nc3c2)=NO1 [Example 222],
≤ 10 nM,C[C@@]1(c2nc3cc(F)c(F)cc3[nH]2)CC(c2ccc3c(=O)n(-c4ccc(Cl)cc4)c(CCCCC(=O)O)nc3c2)=NO1 [Example 224],
≤ 10 nM,CC1(C(=O)Nc2ccc(F)cc2O)CC(c2ccc3c(=O)n(-c4ccc(F)cc4)c(CCCCC(=O)O)nc3c2)=NO1 (stereo not shown) [Example 229],
≤ 10 nM,C[C@@]1(C(=O)Nc2ccc(F)cc2O)CC(c2ccc3c(=O)n(-c4ccc(F)cc4)c(CCCCC(=O)O)nc3c2)=NO1 [Example 231],
≤ 10 nM,C[C@@]1(c2cccc(Br)c2)CC(c2ccc3c(=O)n(-c4ccc(F)cc4)c(CCCCC(=O)O)nc3c2)=NO1 [Example 235],
≤ 10 nM,COc1ccc(Cc2nc(-c3ccc4c(=O)n(-c5ccc(F)cc5)c(CCCCC(=O)O)nc4c3)no2)cc1 [Example 240],
≤ 10 nM,O=C(O)CCCCc1nc2cc(-c3noc(CCc4ccc(F)cc4)n3)ccc2c(=O)n1-c1ccc(F)cc1 [Example 241],
≤ 10 nM,O=C(O)CCCCc1nc2cc(-c3noc(C4Cc5ccccc5C4)n3)ccc2c(=O)n1-c1ccc(F)cc1 [Example 242],
